Test results from patent US7625926B2, “P-glycoprotein inhibitor, method for preparing the same and pharmaceutical composition comprising the same” (Hanmi Pharm. Co., Ltd, priority 2003, dated 2009).

How the values were obtained:
[1] = test system: MCF-7/Dox cell, which is MCF-7 expressing p-glycoprotein; conditions: enhancement of anticancer activity of paclitaxel against MCF7/Dox; ED50 of paclitaxel alone / ED50 with 50 nM test compound
Protocol: The cells were subcultured in 5% FBS (fetal bovine serum)/RPMI1640 medium supplemented with glutamine 2 mmol, sodium bicarbonate 3.7 g/L and gentamicin 10 mg/L at 37° C. in 5% CO2 incubator under 100% humidity, and collected using a 0.25% trypsin solution containing 3 mM 1,2-cyclohenxandiamine tetraacetic acid.
The collected cells were plated on a 96 well flat-bottomed plate at a density of 2×10^3 cells/well, and incubated in the same medium for 24 hours. Paclitaxel, an anticancer agent, was diluted with the same medium to obtain 10^−11˜10^−6 M test solutions. […] After incubating for 72 hours, the culture medium was removed, each well was treated with 10% trichloroacetic acid for 1 hour to fix the cells, washed with water, and dried at room temperature. After adding a dyeing solution containing 1% acetic acid with 0.4% SRB (sulforhodamine B) thereto, the wells were kept at room temperature for 30 min, and washed with 1% acetic acid to remove remaining SRB. […] Also, the enhancement of the anticancer activity of paclitaxel against MCF7/Dox (resistant cancer cells) was measured by determining ED^PAC50/ED50, wherein ED^PAC50 is the value determined for the case of paclitaxel alone.

[2] = In vivo absorption of orally administered paclitaxel; conditions: rats, oral 20 mg/kg paclitaxel with the compound (Control: with vehicle)
Protocol: In order to investigate the activity of the inventive compounds prepared in Examples, in vivo absorption tests were carried out as follows.
Blood samples were taken directly from the heart of each rat before and 1, 2, 4, 6, 8 and 24 hours after the administration.
Each of blood samples was centrifuged at 12,000 rpm to obtain a serum sample, 200 μl of which was mixed with 400 μl of acetonitrile (an internal standard) and the mixture was shaken to obtain an extract. The extract was centrifuged at 12,000 rpm, 4° C. for 5 min to obtain a supernatant.

Compound | ED50^PAC/ED50 [1] | AUC (ng · hr/ml), area under the curve of blood concentration till 24 hours [2] | Cmax (ng/ml), maximum blood concentration [2] | Tmax (hr), time at the maximum blood concentration [2]
COc1cc2c(cc1OC)CN(CCc1ccc(-n3nnc(-c4cc(OC)c(OC)cc4NC(=O)c4cnc5ccccc5c4)n3)cc1)CC2 [Example 1, quinoline-3-carboxylic acid [2-(2-4-[2-(6,7-dimethoxy-3,4-dihydro-1H-isoquinolin-2-yl)-ethyl]-phenyl-2H-tetrazol-5-yl)-4,5-dimethoxy-phenyl]-amide] | 20.3 | 3,032 ± 1,108 ng · hr/ml | 1,172 ± 433 ng/ml | 1.0 h
COc1cc2c(cc1OC)CN(CCc1ccc(-n3nnc(-c4cc(OC)c(OC)cc4NC(=O)C=Cc4ccccc4)n3)cc1)CC2 [Example 31, N-[2-(2-{4-[2-(6,7-dimethoxy-3,4-dihydro-1H-isoquinolin-2-yl)-ethyl]-phenyl}-2H-tetrazol-5-yl)-4,5-dimethoxy-phenyl]-3-phenyl-acrylamide] | 2.7 | – | – | –
COc1cc2c(cc1OC)CN(CCc1ccc(-n3nnc(-c4cc(OC)c(OC)cc4NC(=O)C=Cc4cnc5ccccc5c4)n3)cc1)CC2 [Example 32, N-[2-(2-{4-[2-(6,7-dimethoxy-3,4-dihydro-1H-isoquinolin-2-yl)-ethyl]-phenyl}-2H-tetrazol-5-yl)-4,5-dimethoxy-phenyl]-3-quinolin-3-yl-acrylamide] | 19.2 | – | – | –
COc1ccc(CCN(C)CCc2ccc(-n3nnc(-c4cc(OC)c(OC)cc4NC(=O)c4cc(=O)c5ccccc5o4)n3)cc2)cc1OC [Example 33, 4-oxo-4H-chromene-2-carboxylic acid (2-{2-[4-(2-{[2-(3,4-dimethoxy-phenyl)-ethyl]-methyl-amino}-ethyl)-phenyl]-2H-tetrazol-5-yl}-4,5-dimethoxy-phenyl)-amide] | 23.0 | – | – | –
